The test system of one assay is 22RV1 cells. Kind of assay: Inhibition of the proliferation of drug-resistant prostate cancer cell 22RV1 (CCK-8). To be noted: Homo sapiens; 22RV1 cells (enzalutamide-resistant), same method. Format: cell-based. On the procedure: (1) Experimental materials and instruments: LNCaP/AR cell line and 22RV1 cell line (provided by Sichuan Kangcheng Biotechnology Co., Ltd.) Fetal bovine serum FBS (Gibco, Cat. No. 10099-141) 0.01M PBS (Biosharp, Cat. No. 162262) RIPM1640 medium (Hyclone, Cat. No. 308090.01) Penicillin-Streptomycin (Hyclone, Cat. No. SV30010) Cell counting kit-8 (Signalway Antibody, Cat. No. CP002) DMSO (Sigma, Cat. No. D5879) Centrifuge Tube, 15 ml (Excell Bio, Cat. No. CS015-0001) Cell Culture Dish, (Excell Bio, Cat. No. CS016-0128) 96-well cell culture plate (Corning, Cat. No. 3599) Microplate reader (Thermo Multiskan MK3 type)
a. Preparation of Buffer Cell culture medium: RIPM1640 medium, 10% FBS, 1% Pen Strep: PBS buffer: PBS powder was dissolved in 2 L of ultrapure water and sterilized. b. Experimental Procedures 1) LNCaP/AR cells were subcultured in cell culture media, and then the cells in good growth condition were seeded in a 96-well plate at 80 μL/well (1000 cells/well), and cultured overnight in a 37° C., 5% CO2 cell incubator. 2) The drug was prepared into a 10 mM stock solution with dimethyl sulfoxide (DMSO). Prior to use, the stock solution was diluted in a ratio of […] with DMSO, and then diluted at a 3-fold gradient to obtain 9 serial concentrations. Then, each concentration of compound was further diluted in a ratio of 1:200 with the culture medium (to ensure that the DMSO concentration in the culture system was 0.1%), and two wells were set for each concentration. 20 μL of the diluted compound solution was added to the well of the cell culture (with a final concentration of 10 μM, 3.3 μM, 1.1 μM . . . ), and then the plate was gently tapped to thoroughly mix. In addition, the experiment included 3 negative control wells only containing cells and 3 blank control wells only containing culture medium (6 wells were each added with DMSO diluted in a ratio of 1:200 with 20 μL of culture medium). c. Result Detection: 1) After culturing for 6 days, 10 μL of CCK-8 was added to each well, and the plate was further incubated for 1 h in a 37° C., 5% CO2 cell incubator. 2) The absorbance (OD value) was measured at 450 nm with a multifunctional microplate reader. 3) The data was analyzed by the Dose-response-inhibition equation in the software GraphPad Prism5, and the IC50 value was obtained. 2. Biological assay of the inhibition on the proliferation of other drug-resistant prostate cancer cells
The same test method was used to determine the inhibitory activity of the compound according to the present invention against drug-resistant prostate cancer cell 22RV1.

For a further assay, the system named is LNCaP/AR cells. Nature of the assay: Inhibition of the proliferation of LNCap/AR cells (CCK-8). Format: cell-based. To be noted: 144 h; LNCaP/AR cells, 6 days culture, CCK-8; read-out: LNCap/AR IC50. The method in brief:
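LNCaP/AR cells (1000/well, RPMI1640 + 10% FBS) were treated for 6 days at 37 °C with 9-point 3-fold dilutions from 10 μM final, 0.1% DMSO, in duplicate. Viability was read by CCK-8 absorbance at 450 nm after 1 h, and IC50 came from a dose-response-inhibition fit.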

Structures are written as SMILES. pIC50: −log10 of the molar value.

With `Cc1ccc(-c2c(C)noc2C)cc1N(CCCC1CCN(c2ccc3c(c2)C(=O)N(C2CCC(=O)NC2=O)C3)CC1)c1ccc(C2(C#N)CC2)cc1` (stereo not drawn) [Compound 31, 1-(4-((5-(3,5-Dimethylisoxazol-4-yl)-2-methylphenyl)(3-(1-(2-(2,6-dioxopiperidin-3-yl)-3-oxoisoindolin-5-yl)piperidin-4-yl)propyl)amino)phenyl)cyclopropane-1-nitrile], the pIC50 with 22RV1 cells was more than 7.00; with LNCaP/AR cells, 6.30 to 7.00.
Regarding `Cc1ccc(-c2c(C)noc2C)cc1N(CCCC1CCN(c2ccc3c(c2)CN(C2CCC(=O)NC2=O)C3=O)CC1)c1ccc(C2(C#N)CC2)cc1` (stereo not drawn) [Compound 32, 1-(4-((5-(3,5-Dimethylisoxazol-4-yl)-2-methylphenyl)(3-(1-(2-(2,6-dioxopiperidin-3-yl)-1-oxoisoindolin-5-yl)piperidin-4-yl)propyl)amino)phenyl)cyclopropane-1-nitrile], the pIC50 in the assay with 22RV1 cells was more than 7.00; in the assay with LNCaP/AR cells, 6.30 to 7.00.
As to `Cc1ccc(-c2c(C)noc2C)cc1N(c1ccc(C2(C#N)CC2)cc1)C1CN(CC2CCN(c3ccc4c(c3)C(=O)N(C3CCC(=O)NC3=O)C4=O)CC2)C1` (stereo not drawn) [Compound 34, 1-(4-((5-(3,5-Dimethylisoxazol-4-yl)-2-methylphenyl) (1-((1-(2-(2,6-dioxopiperidin-3-yl)-1,3-dioxoisoindolin-5-yl)piperidin-4-yl)methyl)azetidin-3-yl)amino)phenyl)cyclopropane-1-nitrile], the pIC50 with 22RV1 cells and with LNCaP/AR cells was less than 5.70 in each case.
As for `Cc1ccc(-c2c(C)noc2C)cc1N(CCCCCOCC(=O)N[C@H](C(=O)N1C[C@H](O)C[C@H]1C(=O)N[C@@H](C)c1ccc(-c2scnc2C)cc1)C(C)(C)C)c1ccc(-n2ccnc2C)cc1` [Compound 97, (2S,4R)-1-((S)-2-(2-((5-((5-(3,5-dimethylisoxazol-4-yl)-2-methylphenyl)(4-(2-methyl-1H-imidazol-1-yl)phenyl)amino)pentyl)oxy)acetylamino)-3,3-dimethylbutyryl)-4-hydroxy-N—((S)-1-(4-(4-methylthiazol-5-yl)phenyl)ethyl)-pyrrolidinyl-2-formamide], the pIC50 in the assay with LNCaP/AR cells was 6.30 to 7.00.
On to `CC(=O)O[C@@H]1C[C@@H](C(=O)N[C@@H](C)c2ccc(-c3scnc3C)cc2)N(C(=O)[C@@H](NC(=O)COCCCCCN(c2ccc(-n3ccnc3C)cc2)c2cc(-c3c(C)noc3C)ccc2C)C(C)(C)C)C1` [Compound 98, (3R,5S)-1-((S)-2-(2-((5-((5-(3,5-dimethylisoxazol-4-yl)-2-methylphenyl)(4-(2-methyl-1H-imidazol-1-yl)phenyl)amino)pentyl)oxy)acetylamino)-3,3-dimethylbutyryl)-5-(((S)-1-(4-(4-methylthiazol-5-yl)phenyl)ethyl)aminoformyl)pyrrolidinyl-3-yl acetate], for which the pIC50 in the assay with LNCaP/AR cells is 6.30 to 7.00.
Regarding `CC(=O)O[C@@H]1C[C@@H](C(=O)N[C@@H](C)c2ccc(-c3scnc3C)cc2)N(C(=O)[C@@H](NC(=O)CCN2CCC(CN(c3ccc(-n4ccnc4)c(Br)c3)c3cc(-c4c(C)noc4C)ccc3C)CC2)C(C)(C)C)C1` [Compound 99, (3R,5S)-1-((S)-2-(3-(4-(((3-Bromo-4-(1H-imidazol-1-yl)phenyl)(5-(3,5-dimethylisoxazol-4-yl)-2-methylphenyl)amino)methyl)piperidin-1-yl)propionamide)-3,3-dimethylbutyryl)-5-(((S)-1-(4-(4-methylthiazol-5-yl)phenyl)ethyl)carbamoyl)pyrrolidine-3-yl acetate], in the assay on LNCaP/AR cells, the pIC50 is 5.70 to 6.30.
For the compound `Cc1ccc(-c2c(C)noc2C)cc1N(CC1CCN(CCC(=O)N[C@H](C(=O)N2C[C@H](O)C[C@H]2C(=O)N[C@@H](C)c2ccc(-c3scnc3C)cc2)C(C)(C)C)CC1)c1ccc(-n2ccnc2)c(Br)c1` [Compound 100, (2S,4R)-1-((S)-2-(3-(4-(((3-Bromo-4-(1H-imidazol-1-yl)phenyl)(5-(3,5-dimethylisoxazol-4-yl)-2-methylphenyl)amino)methyl)piperidin-1-yl)propionamide)-3,3-dimethylbutyryl)-4-hydroxy-N—((S)-1-(4-(4-methylthiazol-5-yl)phenyl)ethyl)pyrrolidine-2-formamide], the pIC50 in the assay with LNCaP/AR cells is 5.70 to 6.30.
As for `CC(=O)O[C@@H]1C[C@@H](C(=O)N[C@@H](C)c2ccc(-c3scnc3C)cc2)N(C(=O)[C@@H](NC(=O)COC2CN(CCN(c3ccc(-n4ccnc4)c(Br)c3)c3cc(-c4c(C)noc4C)ccc3C)C2)C(C)(C)C)C1` [Compound 101, (3R,5S)-1-((S)-2-(2-((1-(2-((3-Bromo-4-(1H-imidazol-1-yl)phenyl)(5-(3,5-dimethylisozazol-4-yl)-2-methylphenyl)amino)ethyl)azetidin-3-yl)oxy)acetylamino)-3,3-dimethylbutyryl)-5-(((S)-1-(4-(4-methylthiazol-5-yl)phenyl)ethyl)carbamoyl)pyrrolidine-3-yl acetate], the pIC50 in the assay with LNCaP/AR cells is less than 5.70.
Regarding `Cc1ccc(-c2c(C)noc2C)cc1N(CCCCCCNc1cccc2c1CN(C1CCC(=O)NC1=O)C2=O)c1ccc(-n2ccnc2)c(Br)c1` (stereo not drawn) [Compound 118, 3-(4-((6-((3-Bromo-4-(1H-imidazol-1-yl)phenyl)(5-(3,5-dimethylisoxazol-4-yl)-2-methylphenyl)amino)hexyl)amino)-1-oxoisoindolin-2-yl)piperidine-2,6-dione], the pIC50 with LNCaP/AR cells is less than 5.70.
`Cc1ccc(-c2c(C)noc2C)cc1N(CCCC1CCN(CC(=O)N[C@H](C(=O)N2C[C@H](O)C[C@H]2C(=O)N[C@@H](C)c2ccc(-c3scnc3C)cc2)C(C)(C)C)CC1)c1ccc(-n2ccnc2)c(Br)c1` [Compound 141, (2S,4R)-1-((S)-2-(2-(4-(3-((3-bromo-4-(1H-imidazol-1-yl)phenyl)(5-(3,5-dimethylisoxazol-4-yl)-2-methylphenyl)amino)propyl)piperidin-1-yl)acetamido)-3,3-dimethylbutyryl)-4-hydroxy-N—((S)-1-(4-(4-methylthiazol-5-yl)phenyl)ethyl)tetrahydropyrrole-2-amide]: the pIC50 in the assay on LNCaP/AR cells is 6.30 to 7.00.
For the compound `CC(=O)O[C@@H]1C[C@@H](C(=O)N[C@@H](C)c2ccc(-c3scnc3C)cc2)N(C(=O)[C@@H](NC(=O)CN2CCC(CCCN(c3ccc(-n4ccnc4)c(Br)c3)c3cc(-c4c(C)noc4C)ccc3C)CC2)C(C)(C)C)C1` [Compound 142, (3R,5S)-1-((S)-2-(2-(4-(3-((3-Bromo-4-(1H-imidazol-1-yl)phenyl)(5-(3,5-4-yl)-2-methylphenyl)amino)propyl)piperidin-1-yl)acetamido)-3,3-dimethylbutyryl)-5-(((S)-1-(4-(4-methylthiazol-5-yl)phenyl)ethyl)carbamoyl)pyrrolidinyl-3-acetate], the pIC50 with LNCaP/AR cells was 6.30 to 7.00.
In the case of `Cc1ccc(-c2c(C)noc2C)cc1N(CCCCCOCC(=O)Nc1cccc2c1CN(C1CCC(=O)NC1=O)C2=O)c1ccc(C2(C#N)CC2)cc1` (stereo not drawn) [Compound 144], in the assay on LNCaP/AR cells, the pIC50 is 6.30 to 7.00.
On the same count and under the same terms, in the case of `Cc1ccc(-c2c(C)noc2C)cc1N(CCCCCNc1cc2c(cc1F)C(=O)N(C1CCC(=O)NC1=O)C2=O)c1ccc(C2(C#N)CC2)cc1` (stereo not drawn) [Compound 148, 1-(4-((5-(3,5-Dimethylisoxazol-4-yl)-2-methylphenyl)(5-((2-(2,6-dioxopiperidin-3)-6-fluoro-1,3-dicarbonylisoindolin-5))amino)pentyl)amino)phenylcyclopropanecarbonitrile] it was 5.70 to 6.30; in that of `Cc1ccc(-c2c(C)noc2C)cc1N(C[C@H]1CC[C@H](CNc2cc3c(cc2F)C(=O)N(C2CCC(=O)NC2=O)C3=O)CC1)c1ccc(C2(C#N)CC2)cc1` (stereo partly drawn) [Compound 150], 5.70 to 6.30; in that of `Cc1ccc(-c2c(C)noc2C)cc1N(CCCCCNc1ccc2c(c1)C(=O)N(C1CCC(=O)N(C)C1=O)C2=O)c1ccc(C2(C#N)CC2)cc1` (stereo not drawn) [Compound 151, 1-(4-((5-(3,5-Dimethylisoxazol-4-yl)-2-methylphenyl)(5-((2-(1-methyl-2,6-dioxopiperidin-3)-1,3-dicarbonylisoindolin-5-yl))amino)pentyl)amino)phenylcyclopropanecarbonitrile], less than 5.70.

Values taken from US20220257774A1, “AROMATIC AMINE AR AHD BET TARGETING PROTEIN DEGRADATION CHIMERA COMPOUND AND USE” (HINOVA PHARMACEUTICALS INC., priority 2019, published 2022).
